Each compound was assayed against GST-RIPK1 (recombinant GST-RIPK1 kinase domain (residues 1-327)) (Homo sapiens (Human), UniProt Q13546) (assay: RIPK1-ADP-Glo Enzymatic Assay). Details: 25 nM GST-RIPK1, 300 μM ATP, 3 μM dephosphorylated-MBP, 30 min pre-incubation, 150 min reaction.
Type: biochemical
Description: The enzymatic activity of RIPK1 is measured using an assay derived from ADP-Glo kit (TMPromega), which provides a luminescent-based ADP detection system. Specifically, the ADP generated by RIPK1 kinase is proportionally detected as luminescent signals in a homogenous fashion. In this context, the assessment of the inhibitory effect of small molecules (EC50) is measured by the effectiveness of the compounds to inhibit the ATP to ADP conversion by RIPK1.
In this assay, the potency (EC50) of each compound was determined from a ten-point (1:3 serial dilution; top compound concentration of 100000 nM) titration curve using the following outlined procedure. To each well of a white ProxiPlus 384 well-plate, 30 nL of compound (1% DMSO in final assay volume of 3 μL) was dispensed, followed by the addition of 2 μL of 1× assay buffer (25 mM Hepes 7.3, 20 mM MgCl2, 50 mM NaCl, 1 mM DTT, 0.005% Tween20, and 0.02% BSA) containing 37.5 nM of GST-RIPK1 (recombinant GST-RIPK1 kinase domain (residues 1-327) enzyme produced from baculovirus-transfected Sf21 cells: MW 62 kDa). Plates were placed in an ambient temperature humidified chamber for a 30 min pre-incubation with compound. Subsequently, each reaction was initiated by the addition of 1 μL 1× assay buffer containing 900 μM ATP and 3 μM dephosphorylated-MBP substrate. The final reaction in each well of 3 μL consists of 25 nM of GST-RIPK1, 300 μM ATP, and 3 μM dephosphorylated-MBP. Kinase reactions were allowed to proceed for 150 min prior to adding ADP-Glo reagents per Promega's outlined kit protocol. Dose-response curves were generated by plotting percent effect (% product conversion; Y-axis) vs. Log 10 compound concentrations (X-axis). EC50 values were calculated using a non-linear regression, four-parameters sigmoidal dose-response model.

Chain of GST-RIPK1 (recombinant GST-RIPK1 kinase domain (residues 1-327)) (Q13546 1-327): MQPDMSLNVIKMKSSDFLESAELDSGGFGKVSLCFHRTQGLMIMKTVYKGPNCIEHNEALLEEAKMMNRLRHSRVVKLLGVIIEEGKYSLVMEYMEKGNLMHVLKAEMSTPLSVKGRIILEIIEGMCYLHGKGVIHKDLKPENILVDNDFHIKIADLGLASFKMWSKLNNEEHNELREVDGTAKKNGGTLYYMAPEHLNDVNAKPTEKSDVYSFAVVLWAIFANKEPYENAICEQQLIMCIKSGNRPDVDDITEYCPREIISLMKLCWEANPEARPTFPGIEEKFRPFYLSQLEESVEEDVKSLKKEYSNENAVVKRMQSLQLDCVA

EC50 | Structure (SMILES)
0.034 µM | O=c1n(C23CC(F)(C2)C3)nc2n1[C@H](c1c(F)cccc1F)CC2 [Compound 1-40, (S)-5-(2,6-difluorophenyl)-2-(3-fluorobicyclo[1.1.1]pentan-1-yl)-2,5,6,7-tetrahydro-3H-pyrrolo[2,1-c][1,2,4]triazol-3-one]
0.0544 µM | O=c1n(C23CC(F)(C2)C3)nc2n1[C@H](c1ccc(F)cc1F)CC2 [Compound 1-48, (S)-5-(2,4-difluorophenyl)-2-(3-fluorobicyclo[1.1.1]pentan-1-yl)-2,5,6,7-tetrahydro-3H-pyrrolo[2,1-c][1,2,4]triazol-3-one]
0.047 µM | N#CC12CCC(n3nc4n(c3=O)[C@H](c3ccccc3)CC4)(C1)C2 [Compound 1-39, 4-[(5S)-3-oxo-5-phenyl-6,7-dihydro-3H-pyrrolo[2,1-c][1,2,4]triazol-2(5H)-yl]bicyclo[2.1.1]hexane-1-carbonitrile]
0.0282 µM | O=c1n(C23CC(F)(C2)C3)nc2n1[C@H](c1cc(F)c(O)c(F)c1)CC2 [Compound 1-73, (S)-5-(3,5-difluoro-4-hydroxyphenyl)-2-(3-fluorobicyclo[1.1.1]pentan-1-yl)-2,5,6,7-tetrahydro-3H-pyrrolo[2,1-c][1,2,4]triazol-3-one]
0.0368 µM | O=c1n(C23CC(C(F)F)(C2)C3)nc2n1[C@H](c1ccccc1)CC2 [Compound 1-31, (5S)-2-[3-(difluoromethyl)bicyclo[1.1.1]pentan-1-yl]-5-phenyl-2,5,6,7-tetrahydro-3H-pyrrolo[2,1-c][1,2,4]triazol-3-one]
0.157 µM | O=c1n(C23CC(F)(C2)C3)nc2n1[C@H](c1ccccc1)CC2F (single isomer, unassigned) [Compound 6-3, (5S)-7-(S or R)-fluoro-2-(3-fluorobicyclo[1.1.1]pentan-1-yl)-5-phenyl-2,5,6,7-tetrahydro-3H-pyrrolo[2,1-c][1,2,4]triazol-3-one]
0.0984 µM | O=c1n(C23CC(C2)C3)nc2n1[C@H](c1cc(F)cc(F)c1)CC2 [Compound 1-7, (5S)-2-(bicyclo[1.1.1]pentan-1-yl)-5-(3,5-difluorophenyl)-2,5,6,7-tetrahydro-3H-pyrrolo[2,1-c][1,2,4]triazol-3-one]
0.0269 µM | CC(F)(F)C12CC(n3nc4n(c3=O)[C@H](c3cccc(F)c3)CC4)(C1)C2 [Compound 1-34, (5S)-2-[3-(1,1-difluoroethyl)bicyclo[1.1.1]pentan-1-yl]-5-(3-fluorophenyl)-2,5,6,7-tetrahydro-3H-pyrrolo[2,1-c][1,2,4]triazol-3-one]
0.108 µM | N#CC12CC(n3nc4n(c3=O)[C@H](c3cc(F)cc(F)c3)COC4)(C1)C2 [Compound 1-79, (R)-3-(5-(3,5-difluorophenyl)-3-oxo-5,6-dihydro-3H-[1,2,4]triazolo[3,4-c][1,4]oxazin-2(8H)-yl)bicyclo[1.1.1]pentane-1-carbonitrile]
0.0167 µM | O=c1n(C23CC(F)(C2)C3)nc2n1[C@H](c1cc(F)c(Cl)c(F)c1)CC2 [Compound 1-77, (S)-5-(4-chloro-3,5-difluorophenyl)-2-(3-fluorobicyclo[1.1.1]pentan-1-yl)-2,5,6,7-tetrahydro-3H-pyrrolo[2,1-c][1,2,4]triazol-3-one]
0.25 µM | N#CC12CC(n3nc4n(c3=O)[C@H](c3ccc(C(F)(F)F)cc3)CC4)(C1)C2 [Compound 1-50, (S)-3-(3-oxo-5-(4-(trifluoromethyl)phenyl)-6,7-dihydro-3H-pyrrolo[2,1-c][1,2,4]triazol-2(5H)-yl)bicyclo[1.1.1]pentane-1-carbonitrile]

The remaining lines, values behind:

Structure (SMILES) | EC50
N#CC12CC(n3nc4n(c3=O)[C@H](c3ccccc3)CC4F)(C1)C2 (single isomer, unassigned) [Compound 6-8, 3-[(5S)-7-(S or R)-fluoro-3-oxo-5-phenyl-6,7-dihydro-3H-pyrrolo[2,1-c][1,2,4]triazol-2(5H)-yl]bicyclo[1.1.1]pentane-1-carbonitrile] | 0.0218 µM
O=c1n(C23CC(F)(C2)C3)nc2n1[C@H](c1cc(F)cc(F)c1)C[C@H]2O [Compound 5-1, (5S,7R)-5-(3,5-difluorophenyl)-2-(3-fluorobicyclo[1.1.1]pentan-1-yl)-7-hydroxy-2,5,6,7-tetrahydro-3H-pyrrolo[2,1-c][1,2,4]triazol-3-one] | 0.0783 µM
O=c1n(C23CC(Cl)(C2)C3)nc2n1[C@H](c1ccc(F)cn1)CC2 [Compound 1-71, (S)-2-(3-chlorobicyclo[1.1.1]pentan-1-yl)-5-(5-fluoropyridin-2-yl)-2,5,6,7-tetrahydro-3H-pyrrolo[2,1-c][1,2,4]triazol-3-one] | 0.162 µM
N#Cc1ccc([C@@H]2CCc3nn(C45CC(F)(C4)C5)c(=O)n32)cc1 [Compound 1-67, (S)-4-(2-(3-fluorobicyclo[1.1.1]pentan-1-yl)-3-oxo-2,5,6,7-tetrahydro-3H-pyrrolo[2,1-c][1,2,4]triazol-5-yl)benzonitrile] | 0.279 µM
N#CC12C3C4C1C1C2C3C41n1nc2n(c1=O)[C@H](c1cc(F)cc(F)c1)CC2 (stereo partly drawn) [Compound 1-21, 4-[(5S)-5-(3,5-difluorophenyl)-3-oxo-6,7-dihydro-3H-pyrrolo[2,1-c][1,2,4]triazol-2(5H)-yl]penta-cyclo[4.2.0.0~2,5~.0~3,8~.0~4.7~] octane-1-carbonitrile] | 0.141 µM
N#CC12CC(n3nc4n(c3=O)C(C3CCCCC3)CC4)(C1)C2 (single isomer, unassigned) [Compound 1-55, 3-(5-(S or R)-cyclohexyl-3-oxo-6,7-dihydro-3H-pyrrolo[2,1-c][1,2,4]triazol-2(5H)-yl)bicyclo[1.1.1]pentane-1-carbonitrile] | 0.103 µM
Cc1cc(F)cc(C2CCc3nn(C45CC(F)(C4)C5)c(=O)n32)c1 (racemic) [Compound 4-6, (±)-2-(3-fluorobicyclo[1.1.1]pentan-1-yl)-5-(3-fluoro-5-methylphenyl)-2,5,6,7-tetrahydro-3H-pyrrolo[2,1-c][1,2,4]triazol-3-one] | 0.0441 µM
COC12CCC(n3nc4n(c3=O)[C@H](c3cc(F)cc(F)c3)CC4)(CC1)C2 [Compound 1-26, (5S)-5-(3,5-difluorophenyl)-2-(4-methoxybicyclo[2.2.1]heptan-1-yl)-2,5,6,7-tetrahydro-3H-pyrrolo[2,1-c][1,2,4]triazol-3-one] | 0.377 µM
O=c1n(C23CC(F)(C2)C3)nc2n1[C@H](c1ccc(C3CC3)cc1)CC2 [Compound 4-11, (S)-5-(4-cyclopropylphenyl)-2-(3-fluorobicyclo[1.1.1]pentan-1-yl)-2,5,6,7-tetrahydro-3H-pyrrolo[2,1-c][1,2,4]triazol-3-one] | 0.108 µM
O=c1n(C23CC(Cl)(C2)C3)nc2n1[C@H](c1cc(F)cc(F)c1)CC2 [Compound 1-8, (5S)-2-(3-chlorobicyclo[1.1.1]pentan-1-yl)-5-(3,5-difluorophenyl)-2,5,6,7-tetrahydro-3H-pyrrolo[2,1-c][1,2,4]triazol-3-one] | 0.0218 µM
O=c1n(C23CC(F)(C2)C3)nc2n1[C@H](c1ccccc1)CC2 [Compound 1-6, (5S)-2-(3-fluorobicyclo[1.1.1]pentan-1-yl)-5-phenyl-2,5,6,7-tetrahydro-3H-pyrrolo[2,1-c][1,2,4]triazol-3-one] | 0.0512 µM
Cc1c(F)cc([C@@H]2CCc3nn(C45CC(F)(C4)C5)c(=O)n32)cc1F [Compound 1-56, (S)-5-(3,5-difluoro-4-methylphenyl)-2-(3-fluorobicyclo[1.1.1]pentan-1-yl)-2,5,6,7-tetrahydro-3H-pyrrolo[2,1-c][1,2,4]triazol-3-one] | 0.0158 µM
N#CC12CC(n3nc4n(c3=O)[C@H](c3cc(F)cc(F)c3)CC4)(C1)C2 [Compound 1-5, 3-[(5S)-5-(3,5-difluorophenyl)-3-oxo-6,7-dihydro-3H-pyrrolo[2,1-c][1,2,4]triazol-2(5H)-yl]bicyclo[1.1.1]pentane-1-carbonitrile] | 0.0148 µM
O=c1n(C23C4C5C2C2C3C4C52F)nc2n1[C@H](c1cc(F)cc(F)c1)CC2 (stereo partly drawn) [Compound 1-20, (5S)-5-(3,5-difluorophenyl)-2-(4-fluoropentacy-clo[4.2.0.0~2,5~.0~3,8~.0~4,7~]octan-1-yl)-2,5,6,7-tetrahydro-3H-pyrrolo[2,1-c][1,2,4]triazol-3-one] | 0.0385 µM
N#CC12CC(n3nc4n(c3=O)[C@H](c3ccccc3F)CC4F)(C1)C2 (single isomer, unassigned) [Compound 6-10, 3-[(5S)-7-(S or R)-fluoro-5-(2-fluorophenyl)-3-oxo-6,7-dihydro-3H-pyrrolo[2,1-c][1,2,4]triazol-2(5H)-yl]bicyclo[1.1.1]pentane-1-carbonitrile] | 0.0181 µM
Cc1ccc([C@@H]2CCc3nn(C45CC(C#N)(C4)C5)c(=O)n32)cc1 [Compound 4-7, (S)-3-(3-oxo-5-(p-tolyl)-6,7-dihydro-3H-pyrrolo[2,1-c][1,2,4]triazol-2(5H)-yl)bicyclo[1.1.1]pentane-1-carbonitrile] | 0.0495 µM

Reference: patent US20240025912A1 (Merck Sharp & Dohme LLC, priority 2022, published 2024)
